Assay results as given in patent US20100267561A1, “HERBICIDAL PYRIDAZINONE DERIVATIVES” (priority 2007, published 2010).

Tests used:
Assay type in all cases: in vivo
rice (Oryza sativa) = test: Test B flooded paddy test plant response
Summary of the method: (§1)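 Rice, umbrella sedge, ducksalad and barnyardgrass at 2-leaf stage; pots flooded to 3 cm, compounds applied into paddy water, depth held throughout. Greenhouse 13 to 15 days, then visual rating vs untreated controls on 0–100 scale (0 no effect, 100 complete control); dash means no test result.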

[1] = system: umbrella sedge (Cyperus difformis); test: Test B flooded paddy test plant response
Summary of the method: as §1

[2] = system: ducksalad (Heteranthera limosa); test: Test B flooded paddy test plant response
Summary of the method: as §1

[3] = system: barnyardgrass (Echinochloa crus-galli); test: Test B flooded paddy test plant response
Summary of the method: as §1

[4] = system: velvetleaf (Abutilon theophrasti); test: Test B pre-/postemergence plant response
Description: (§2) Seeds of plant species selected from blackgrass (Alopecurus myosuroides), downy bromegrass (Bromus tectorum), green foxtail (Setaria viridis), Italian ryegrass (Lolium multiflorum), wheat (Triticum aestivum), wild oat (Avena fatua), catchweed bedstraw (Galium aparine), bermudagrass (Cynodon dactylon), surinam grass (Brachiaria decumbens), cocklebur (Xanthium strumarium), corn (Zea mays), large crabgrass (Digitaria sanguinalis), woolly cupgrass (Eriochloa villosa), giant foxtail (Setaria faberii), goosegrass (Eleusine indica), johnsongrass (Sorghum halepense), kochia (Kochia scoparia), lambsquarters (Chenopodium album), morningglory (Ipomoea coccinea), eastern black (E.B.) nightshade (Solanum ptycanthum), yellow nutsedge (Cyperus esculentus), pigweed (Amaranthus retroflexus), common ragweed (Ambrosia elation), Russian thistle (Salsola iberica), soybean (Glycine max), common (oilseed) sunflower (Helianthus annuus), and velvetleaf (Abutilon theophrasti) were planted and treated preemergence with test chemicals formulated in a non-phytotoxic solvent mixture which included a surfactant.
(§3) At the same time, plants selected from these crop and weed species and also winter barley (Hordeum vulgare), canarygrass (Phalaris minor), chickweed (Stellaria media) and windgrass (Apera spica-venti) were treated with postemergence applications of some of the test chemicals formulated in the same manner. Plants ranged in height from 2 to 18 cm (1- to 4-leaf stage) for postemergence treatments.
(§4) Plant species in the flooded paddy test consisted of rice (Oryza sativa), umbrella sedge (Cyperus difformis), ducksalad (Heteranthera limosa) and barnyardgrass (Echinochloa crus-galli) grown to the 2-leaf stage for testing. At time of treatment, test pots were flooded to 3 cm above the soil surface, treated by application of test compounds directly to the paddy water, and then maintained at that water depth for the duration of the test. Treated plants and controls were maintained in a greenhouse for 13 to 15 days, after which time all species were compared to controls and visually evaluated. Plant response ratings, summarized in Table B, are based on a scale of 0 to 100 where 0 is no effect and 100 is complete control. A dash (-) response means no test result.

[5] = system: yellow nutsedge (Cyperus esculentus); test: Test B pre-/postemergence plant response
Description: as §2, §3, §4

[6] = system: woolly cupgrass (Eriochloa villosa); test: Test B pre-/postemergence plant response
Description: as §2, §3, §4

[7] = system: Russian thistle (Salsola iberica); test: Test B pre-/postemergence plant response; details: Preemergence
Description: as §2, §3, §4

[8] = system: giant foxtail (Setaria faberii); test: Test B pre-/postemergence plant response
Description: as §2, §3, §4

[9] = system: Italian ryegrass (Lolium multiflorum); test: Test B pre-/postemergence plant response
Description: as §2, §3, §4

[10] = system: bermudagrass (Cynodon dactylon); test: Test B pre-/postemergence plant response
Description: as §2, §3, §4

[11] = system: downy bromegrass (Bromus tectorum); test: Test B pre-/postemergence plant response
Description: as §2, §3, §4

corn (Zea mays) = test: Test B pre-/postemergence plant response
Description: as §2, §3, §4

[12] = system: cocklebur (Xanthium strumarium); test: Test B pre-/postemergence plant response
Description: as §2, §3, §4

[13] = Flood (flooded paddy test), 62 g ai/ha, scale 0 to 100, 0 no effect, 100 complete control
[14] = Flood (flooded paddy test), 125 g ai/ha, scale 0 to 100, 0 no effect, 100 complete control
[15] = Flood (flooded paddy test), 250 g ai/ha, scale 0 to 100, 0 no effect, 100 complete control
[16] = Flood, 31 g ai/ha, scale 0 to 100
[17] = Postemergence, 31 g ai/ha, scale 0 to 100, 0 no effect, 100 complete control
[18] = Postemergence, 62 g ai/ha, scale 0 to 100
[19] = Postemergence, 125 g ai/ha, scale 0 to 100
[20] = Postemergence, 250 g ai/ha, scale 0 to 100
[21] = Preemergence, 31 g ai/ha, 0 to 100 scale, 0 no effect, 100 complete control
[22] = Preemergence, 62 g ai/ha, scale 0 to 100
[23] = Preemergence, 250 g ai/ha, scale 0 to 100
[24] = Preemergence, 125 g ai/ha, scale 0 to 100
[25] = 8 g ai/ha, postemergence, 0-100 scale
[26] = 16 g ai/ha, postemergence, 0-100 scale
[27] = Postemergence, 31 g ai/ha, scale 0 to 100
[28] = Postemergence, 62 g ai/ha, scale 0 to 100, 0 no effect, 100 complete control
[29] = Preemergence, 8 g ai/ha, scale 0 to 100 (0 no effect, 100 complete control)
[30] = Preemergence, 31 g ai/ha, scale 0 to 100 (0 no effect, 100 complete control)
[31] = Preemergence, 62 g ai/ha, 0 to 100 scale, 0 no effect, 100 complete control
[32] = Preemergence, 16 g ai/ha, scale 0 to 100

Cc1nn(C)c(=O)c(-n2nc(-c3ccc(Cl)cc3)cc2C)c1O [Compound 15]
Plant response rating, Rice (rice (Oryza sativa); [13]): 0
Plant response rating, Rice (rice (Oryza sativa); [14]): 15
Plant response rating, Rice (rice (Oryza sativa); [15]): 70
Plant response rating, Rice (rice (Oryza sativa); [16]): 0
Plant response rating, Sedge, Umbrella [1, 13]: 50
Plant response rating, Sedge, Umbrella [1, 14]: 60
Plant response rating, Sedge, Umbrella [1, 15]: 70
Plant response rating, Sedge, Umbrella [1, 16]: 0
Plant response rating, Ducksalad [2, 13]: 0
Plant response rating, Ducksalad [2, 14]: 80
Plant response rating, Ducksalad [2, 15]: 100
Plant response rating, Ducksalad [2, 16]: 0
Plant response rating, Barnyardgrass [3, 13]: 15
Plant response rating, Barnyardgrass [3, 14]: 40
Plant response rating, Barnyardgrass [3, 15]: 60
Plant response rating, Barnyardgrass [3, 16]: 0
Plant response rating, Velvetleaf [4, 17]: 0
Plant response rating, Velvetleaf [4, 18]: 0
Plant response rating, Velvetleaf [4, 19]: 0
Plant response rating, Velvetleaf [4, 20]: 0
Plant response rating, Velvetleaf [4, 21]: 0
Plant response rating, Velvetleaf [4, 22]: 0
Plant response rating, Velvetleaf [4, 23]: 0
Plant response rating, Nutsedge, Yellow [5, 18]: 0
Plant response rating, Nutsedge, Yellow [5, 19]: 0
Plant response rating, Nutsedge, Yellow [5, 20]: 0
Plant response rating, Nutsedge, Yellow [5, 21]: 0
Plant response rating, Nutsedge, Yellow [5, 22]: 0
Plant response rating, Nutsedge, Yellow [5, 23]: 0
Plant response rating, Cupgrass, Woolly [6, 18]: 100
Plant response rating, Cupgrass, Woolly [6, 19]: 100
Plant response rating, Cupgrass, Woolly [6, 20]: 100
Plant response rating, Cupgrass, Woolly [6, 21]: 60
Plant response rating, Cupgrass, Woolly [6, 22]: 85
Plant response rating, Cupgrass, Woolly [6, 24]: 90
Plant response rating, Cupgrass, Woolly [6, 23]: 98
Plant response rating, Russian Thistle ([7]; 31 g ai/ha, 0 to 100 scale, 0 no effect, 100 complete control): 0
Plant response rating, Russian Thistle ([7]; 250 g ai/ha, scale 0 to 100): 80
Plant response rating, Foxtail, Giant [8, 17]: 95
Plant response rating, Foxtail, Giant [8, 18]: 100
Plant response rating, Foxtail, Giant [8, 19]: 100
Plant response rating, Foxtail, Giant [8, 20]: 100
Plant response rating, Foxtail, Giant [8, 21]: 90
Plant response rating, Foxtail, Giant [8, 22]: 100
Plant response rating, Foxtail, Giant [8, 24]: 100
Plant response rating, Foxtail, Giant [8, 23]: 100
Plant response rating, Ryegrass, Italian [9, 17]: 98
Plant response rating, Ryegrass, Italian [9, 18]: 100
Plant response rating, Ryegrass, Italian [9, 19]: 100
Plant response rating, Ryegrass, Italian [9, 20]: 100
Plant response rating, Ryegrass, Italian [9, 21]: 70
Plant response rating, Ryegrass, Italian [9, 22]: 100
Plant response rating, Ryegrass, Italian [9, 24]: 100
Plant response rating, Ryegrass, Italian [9, 23]: 100
Bermudagrass plant response rating ([10]; 250 g ai/ha, preemergence, 0-100 scale): 100
Plant response rating, Bermudagrass [10, 17]: 70
Plant response rating, Bermudagrass [10, 18]: 100
Plant response rating, Bermudagrass [10, 19]: 100
Plant response rating, Bermudagrass [10, 20]: 100
Plant response rating, Bermudagrass [10, 21]: 98
Plant response rating, Bermudagrass [10, 22]: 98
Plant response rating, Bermudagrass [10, 24]: 100
Plant response rating, Bromegrass, Downy [11, 17]: 10
Plant response rating, Bromegrass, Downy [11, 18]: 15
Plant response rating, Bromegrass, Downy [11, 19]: 45
Plant response rating, Bromegrass, Downy [11, 20]: 60
Plant response rating, Bromegrass, Downy [11, 21]: 50
Plant response rating, Bromegrass, Downy [11, 22]: 55
Plant response rating, Bromegrass, Downy [11, 24]: 90
Plant response rating, Bromegrass, Downy ([11]; Preemergence, 250 g ai/ha, scale 0 to 100 (0 no effect, 100 complete control)): 98
Plant response rating, Corn (corn (Zea mays); [17]): 90
Plant response rating, Corn (corn (Zea mays); [18]): 95
Plant response rating, Corn (corn (Zea mays); [19]): 95
Plant response rating, Corn (corn (Zea mays); [21]): 50
Plant response rating, Corn (corn (Zea mays); [22]): 98
Plant response rating, Corn (corn (Zea mays); [24]): 100
Plant response rating, Corn (corn (Zea mays); [23]): 100
Plant response rating, Cocklebur [12, 17]: 0
Plant response rating, Cocklebur [12, 18]: 0
Plant response rating, Cocklebur [12, 19]: 0
Plant response rating, Cocklebur [12, 20]: 0
Plant response rating, Cocklebur [12, 21]: 0
Plant response rating, Cocklebur [12, 22]: 0
Plant response rating, Cocklebur [12, 24]: 0
Plant response rating, Cocklebur [12, 23]: 10

COc1nn(C)c(=O)c(-n2nc(-c3ccc(Br)cc3)cc2C)c1O [Compound 82]
Velvetleaf plant response rating [4, 25]: 0
Velvetleaf plant response rating [4, 26]: 0
Plant response rating, Velvetleaf [4, 27]: 0
Plant response rating, Velvetleaf [4, 28]: 55
Velvetleaf plant response rating [4, 29]: 0
Plant response rating, Velvetleaf [4, 30]: 45
Plant response rating, Velvetleaf [4, 31]: 75
Velvetleaf plant response rating [4, 32]: 0
Nutsedge, Yellow plant response rating [5, 25]: 0
Nutsedge, Yellow plant response rating [5, 26]: 0
Plant response rating, Nutsedge, Yellow [5, 27]: 0
Plant response rating, Nutsedge, Yellow [5, 28]: 0
Nutsedge, Yellow plant response rating [5, 29]: 0
Plant response rating, Nutsedge, Yellow [5, 30]: 0
Plant response rating, Nutsedge, Yellow [5, 31]: 45
Nutsedge, Yellow plant response rating [5, 32]: 0
Cupgrass, Woolly plant response rating [6, 25]: 85
Cupgrass, Woolly plant response rating [6, 26]: 90
Plant response rating, Cupgrass, Woolly [6, 27]: 95
Plant response rating, Cupgrass, Woolly [6, 28]: 100
Cupgrass, Woolly plant response rating [6, 29]: 45
Plant response rating, Cupgrass, Woolly [6, 30]: 98
Plant response rating, Cupgrass, Woolly [6, 31]: 100
Cupgrass, Woolly plant response rating [6, 32]: 80
Russian Thistle plant response rating ([7]; 8 g ai/ha, scale 0 to 100 (0 no effect, 100 complete control)): 0
Plant response rating, Russian Thistle ([7]; 31 g ai/ha, scale 0 to 100 (0 no effect, 100 complete control)): 0
Plant response rating, Russian Thistle ([7]; 62 g ai/ha, 0 to 100 scale, 0 no effect, 100 complete control): 0
Russian Thistle plant response rating ([7]; 16 g ai/ha, scale 0 to 100): 0
Foxtail, Giant plant response rating [8, 25]: 95
Foxtail, Giant plant response rating [8, 26]: 100
Plant response rating, Foxtail, Giant [8, 27]: 100
Plant response rating, Foxtail, Giant [8, 28]: 100
Foxtail, Giant plant response rating [8, 29]: 98
Plant response rating, Foxtail, Giant [8, 30]: 100
Plant response rating, Foxtail, Giant [8, 31]: 100
Foxtail, Giant plant response rating [8, 32]: 100
Ryegrass, Italian plant response rating [9, 25]: 98
Ryegrass, Italian plant response rating [9, 26]: 98
Plant response rating, Ryegrass, Italian [9, 27]: 100
Plant response rating, Ryegrass, Italian [9, 28]: 100
Ryegrass, Italian plant response rating [9, 29]: 40
Plant response rating, Ryegrass, Italian [9, 30]: 100
Plant response rating, Ryegrass, Italian [9, 31]: 100
Ryegrass, Italian plant response rating [9, 32]: 98
Bermudagrass plant response rating [10, 25]: 98
Bermudagrass plant response rating [10, 26]: 100
Plant response rating, Bermudagrass [10, 27]: 100
Plant response rating, Bermudagrass [10, 28]: 100
Bermudagrass plant response rating [10, 29]: 90
Bermudagrass plant response rating ([10]; Preemergence, 16 g ai/ha, scale 0 to 100 (0 no effect, 100 complete control)): 100
Plant response rating, Bermudagrass [10, 30]: 100
Plant response rating, Bermudagrass [10, 31]: 100
Bromegrass, Downy plant response rating [11, 25]: 85
Bromegrass, Downy plant response rating [11, 26]: 95
Plant response rating, Bromegrass, Downy [11, 27]: 100
Plant response rating, Bromegrass, Downy [11, 28]: 100
Bromegrass, Downy plant response rating [11, 29]: 30
Plant response rating, Bromegrass, Downy [11, 30]: 98
Plant response rating, Bromegrass, Downy [11, 31]: 100
Bromegrass, Downy plant response rating [11, 32]: 50
Corn plant response rating (corn (Zea mays); [25]): 40
Corn plant response rating (corn (Zea mays); [26]): 100
Plant response rating, Corn (corn (Zea mays); [27]): 100
Plant response rating, Corn (corn (Zea mays); [28]): 100
Corn plant response rating (corn (Zea mays); [29]): 95
Plant response rating, Corn (corn (Zea mays); [30]): 98
Plant response rating, Corn (corn (Zea mays); [31]): 98
Corn plant response rating (corn (Zea mays); [32]): 95
Cocklebur plant response rating [12, 25]: 0
Cocklebur plant response rating [12, 26]: 0
Plant response rating, Cocklebur [12, 27]: 0
Plant response rating, Cocklebur [12, 28]: 20
Cocklebur plant response rating [12, 29]: 0
Plant response rating, Cocklebur [12, 30]: 0
Plant response rating, Cocklebur [12, 31]: 35
Cocklebur plant response rating [12, 32]: 0
